Test results reported in patent US6515020B1, “Combination of carnitines and resveratrol for prevention or treatment of cerebral and ageing disorders” (Sigma-Tau HealthScience S.p.A., priority 1998, dated 2003).

Tests used:
[1] = test system: pheochromocytoma cells (PC-12); assay: Survival of pheochromocytoma cells (PC-12) exposed to H2O2; assay type: cell-based; conditions: for survival rate: 0.1 mM H2O2 30 minutes
Description: Tests of survival of pheochromocytoma cells (PC-12) exposed to H2O2 and treated with L-carnitine or resveratrol or with the two products in combination
A culture of pheochromocytoma cells (PC-12) containing 3×10^5 N-cells/ml was exposed to 0.1 mM concentrations of H2O2 for 30 minutes. While the survival of the cells treated with H2O2 alone was approximately 45% after 24 hours, the survival of the cells treated with L-carnitine or with resveratrol was substantially greater, with survival rates of 55, 60 and 62%, respectively, for cells treated with L-carnitine, acetyl L-carnitine and propionyl L-carnitine at concentrations of 10^−8 M, and a survival rate of 69% for cells treated with resveratrol at the concentration of 10^−4 M.

[2] = test system: spontaneous motility of endothelin (ET-1)-treated mice; assay: Spontaneous motility of mice reduced by intracerebral endothelin (ET-1); assay type: in vivo
Excerpt: One of the effects of a vasoactive peptide and neuromodulator such as endothelin is the influence it exerts on animal behaviour in reducing the animals' motility and vestibular reactions.
In these tests, we were able to observe that the typical action of endothelin (ET-1) injected intracerebrally in mice at the dose of 1 pmol/mouse, which is to substantially reduce the animals' spontaneous motility, can be inhibited to a very significant extent by prior administration of carnitines and resveratrol, and, particularly, that the combination of these two types of substances is capable of acting synergistically, restoring the motility reduced by endothelin administration almost to normal values.
The values were observed, keeping 10 mice at a time placed in a container with a photocell and an automatic movement counter; the count was done by observing the mice for periods of 5 minutes 15 minutes after the endothelin (ET-1) injection.

[3] = test system: sensory neuronal lesions induced by cisplatin; assay type: in vivo, mouse; conditions: cisplatin-treated mice; 10 animals per group
Description: In these tests, cisplatin was used as a neuronal toxic factor, capable, particularly, of producing lesions in the sensory neurones and thus of impairing proprioceptive perception. The tests evaluated the ability of carnitines, resveratrol and combinations of these substances to restore peripheral sensory perception in the mouse impaired by injection of cisplatin. This ability was assessed by evaluating the reaction to thermal pain induced by a heated water solution in which the animals' tails were dipped according to the tail-flick test, or using the rotating bar test (Apfel S.C., Lipton R.B., Ann. Neurol., 29, 87-90, 1991).
Cisplatin was administered subcutaneously at the dose of 10 mg/kg for eight consecutive days. Over the same period the mice received injections of 100 mg/kg of carnitines and 2.5 mg/kg of resveratrol or combinations of these products.
The values observed, in fact, were 13.5 seconds in the animals treated with acetyl L-carnitine plus resveratrol and 14.4 seconds in those treated with propionyl L-carnitine plus resveratrol.

[4] = carnitines 300 mg/kg intra-peritoneally for three days preceding and half an hour before ET-1 injection

For `OO` [H2O2], the “survival of the cells” value ([1]; 0.1 mM H2O2 alone for 30 minutes, after 24 hours) was “approximately 45%”.

For `C[N+](C)(C)C[C@H](O)CC(=O)[O-]` [L-carnitine], the motility reduction percentage [2, 4] was 69.6% and the survival rate ([1]; carnitine at 10^−8 M) was 55%.

Work on `CC(=O)O[C@H](CC(=O)[O-])C[N+](C)(C)C` [acetyl L-carnitine] yielded a motility reduction percentage [2, 4] of 65.5% and a survival rate ([1]; carnitine at 10^−8 M) of 60%.

`CC[C@H](C)[C@H](NC(=O)[C@H](CC(=O)O)NC(=O)[C@H](CC(C)C)NC(=O)[C@H](Cc1c[nH]cn1)NC(=O)[C@@H]1CSSC[C@H](N)C(=O)N[C@@H](CO)C(=O)N[C@H]2CSSC[C@H](NC(=O)[C@H](CCC(=O)O)NC(=O)[C@H](CCCCN)NC(=O)[C@H](CC(=O)O)NC(=O)[C@H](CCSC)NC(=O)[C@H](CC(C)C)NC(=O)[C@H](CO)NC(=O)[C@H](CO)NC2=O)C(=O)N[C@@H](C(C)C)C(=O)N[C@@H](Cc2ccc(O)cc2)C(=O)N[C@@H](Cc2ccccc2)C(=O)N1)C(=O)N[C@H](C(=O)N[C@@H](Cc1c[nH]c2ccccc12)C(=O)O)[C@@H](C)CC` [endothelin] was tested, and the motility reduction percentage ([2]; endothelin alone, 1 pmol/mouse intracerebrally, count for 5 minutes, 15 minutes after injection) was 85.5%.

`CCC(=O)O[C@H](CC(=O)[O-])C[N+](C)(C)C` [propionyl L-carnitine] showed a motility reduction percentage [2, 4] of 60.3% and a survival rate ([1]; carnitine at 10^−8 M) of 62%.

For `Oc1ccc(/C=C/c2cc(O)cc(O)c2)cc1` [resveratrol, trans-3,4′,5-trihydroxy-stilbene], the “increase in equilibrium time” value [3] was “significant increase”, the motility reduction percentage ([2]; alone, resveratrol 2.5 mg/kg, ET-1 treated mice) was 60.4% and the survival rate ([1]; resveratrol at 10^−4 M) was 69%.
